Source: the CheMixHub ionic liquid set
± gives the uncertainty stated by the source.

Test: xn = mol fraction of the nth substance listed
Conditions: 101 kPa

In the case of `CCCCCC[n+]1ccn(C)c1.[Cl-]` + CCCCCC[n+]1ccn(C)c1.F[B-](F)(F)F, the electrical conductivity (303 K, x1 = 0.2) is reported as 0.0846 ± 0.0068 S/m, the electrical conductivity (303 K, x1 = 0.4) is reported as 0.0415 ± 0.0033 S/m and the electrical conductivity (303 K, x1 = 0.6) is reported as 0.0196 ± 0.0016 S/m. For the same compound, the electrical conductivity (303 K, x1 = 0.8) was 0.00783 ± 0.00063 S/m, the electrical conductivity (303 K, x1 = 1) was 0.00318 ± 0.00027 S/m and the viscosity (303.15 K, x1 = 0.2) was 380 ± 120 mPa·s. For the same compound, the viscosity (303.15 K, x1 = 0.4) was 800 ± 250 mPa·s, the viscosity (303.15 K, x1 = 0.6) was 1835 ± 590 mPa·s and the electrical conductivity (308 K, x1 = 0.2) was 0.113 ± 0.0091 S/m. The electrical conductivity (308 K, x1 = 0.4) was 0.0581 ± 0.0047 S/m, the electrical conductivity (308 K, x1 = 0.6) was 0.029 ± 0.0024 S/m and the electrical conductivity (308 K, x1 = 0.8) was 0.0123 ± 0.001 S/m. It also gave an electrical conductivity (308 K, x1 = 1) of 0.00531 ± 0.00044 S/m, a viscosity (308.15 K, x1 = 0.2) of 275 ± 84 mPa·s and a viscosity (308.15 K, x1 = 0.4) of 550 ± 170 mPa·s. It also gave a viscosity (308.15 K, x1 = 0.6) of 1194 ± 380 mPa·s, an electrical conductivity (313 K, x1 = 0.2) of 0.147 ± 0.012 S/m and an electrical conductivity (313 K, x1 = 0.4) of 0.0791 ± 0.0064 S/m. The electrical conductivity (313 K, x1 = 0.6) was 0.0413 ± 0.0034 S/m, the electrical conductivity (313 K, x1 = 0.8) was 0.0186 ± 0.0015 S/m and the electrical conductivity (313 K, x1 = 1) was 0.00852 ± 0.0007 S/m. It also gave a viscosity (313.15 K, x1 = 0.2) of 204 ± 62 mPa·s, a viscosity (313.15 K, x1 = 0.4) of 390 ± 120 mPa·s and a viscosity (313.15 K, x1 = 0.6) of 810 ± 250 mPa·s. It also gave a viscosity (313.15 K, x1 = 0.8) of 1892 ± 610 mPa·s, an electrical conductivity (318 K, x1 = 0.2) of 0.19 ± 0.015 S/m and an electrical conductivity (318 K, x1 = 0.4) of 0.106 ± 0.0086 S/m. For the same compound, the electrical conductivity (318 K, x1 = 0.6) was 0.0575 ± 0.0047 S/m, the electrical conductivity (318 K, x1 = 0.8) was 0.0272 ± 0.0022 S/m and the electrical conductivity (318 K, x1 = 1) was 0.0133 ± 0.0011 S/m. For the same compound, the viscosity (318.15 K, x1 = 0.2) was 156 ± 47 mPa·s, the viscosity (318.15 K, x1 = 0.4) was 283 ± 86 mPa·s and the viscosity (318.15 K, x1 = 0.6) was 560 ± 170 mPa·s. It also gave a viscosity (318.15 K, x1 = 0.8) of 1237 ± 390 mPa·s, an electrical conductivity (323 K, x1 = 0.2) of 0.24 ± 0.019 S/m and an electrical conductivity (323 K, x1 = 0.4) of 0.14 ± 0.011 S/m. It also gave an electrical conductivity (323 K, x1 = 0.6) of 0.0791 ± 0.0064 S/m, an electrical conductivity (323 K, x1 = 0.8) of 0.0392 ± 0.0032 S/m and an electrical conductivity (323 K, x1 = 1) of 0.0202 ± 0.0016 S/m. It also gave a viscosity (323.15 K, x1 = 0.2) of 122 ± 37 mPa·s, a viscosity (323.15 K, x1 = 0.4) of 213 ± 65 mPa·s and a viscosity (323.15 K, x1 = 0.6) of 400 ± 120 mPa·s. It also gave a viscosity (323.15 K, x1 = 0.8) of 840 ± 260 mPa·s, a viscosity (323.15 K, x1 = 1) of 1879 ± 600 mPa·s and an electrical conductivity (328 K, x1 = 0.2) of 0.299 ± 0.024 S/m. It also gave an electrical conductivity (328 K, x1 = 0.4) of 0.179 ± 0.014 S/m, an electrical conductivity (328 K, x1 = 0.6) of 0.106 ± 0.0086 S/m and an electrical conductivity (328 K, x1 = 0.8) of 0.0547 ± 0.0044 S/m. It also gave an electrical conductivity (328 K, x1 = 1) of 0.0295 ± 0.0024 S/m, a viscosity (328.15 K, x1 = 0.2) of 98 ± 29 mPa·s and a viscosity (328.15 K, x1 = 0.4) of 163 ± 49 mPa·s. It also gave a viscosity (328.15 K, x1 = 0.6) of 296 ± 90 mPa·s, a viscosity (328.15 K, x1 = 0.8) of 580 ± 180 mPa·s and a viscosity (328.15 K, x1 = 1) of 1228 ± 390 mPa·s. For the same compound, the electrical conductivity (333 K, x1 = 0.2) was 0.368 ± 0.03 S/m, the electrical conductivity (333 K, x1 = 0.4) was 0.227 ± 0.018 S/m and the electrical conductivity (333 K, x1 = 0.6) was 0.139 ± 0.011 S/m. For the same compound, the electrical conductivity (333 K, x1 = 0.8) was 0.0747 ± 0.0061 S/m, the electrical conductivity (333 K, x1 = 1) was 0.0423 ± 0.0034 S/m and the viscosity (333.15 K, x1 = 0.2) was 78 ± 24 mPa·s. For the same compound, the viscosity (333.15 K, x1 = 0.4) was 128 ± 38 mPa·s, the viscosity (333.15 K, x1 = 0.6) was 220 ± 67 mPa·s and the viscosity (333.15 K, x1 = 0.8) was 420 ± 130 mPa·s. The viscosity (333.15 K, x1 = 1) was 840 ± 260 mPa·s.
